Reference: patent US20190166840A1, “SUBSTITUTED PYRAZOLINYL DERIVATIVES, PROCESSES FOR THEIR PREPARATION AND THEIR USE AS HERBICIDES AND/OR PLANT GROWTH REGULATORS” (BAYER CROPSCIENCE AKTIENGESELLSCHAFT, priority 2016, published 2019)

What was measured:
Assay type in all cases: in vivo
Conditions in all cases: application rate 1280 g/ha, scored visually after about 3 weeks
Amaranthus retroflexus = assay: Pre-emergence herbicidal action, AMARE
Source text: (§1) Pre-Emergence Herbicidal Action Seeds of mono- and dicotyledonous weed plants or crop plants were placed in sandy loam in wood fibre pots and covered with soil. The formulated compounds of the general formula (I) according to the invention were then applied to the surface of the covering soil in the form of an aqueous suspension or emulsion at an application rate of 600 l of water/ha (converted) with addition of 0.2% wetting agent. After the treatment, the pots were placed in a greenhouse and kept under good growth conditions for the test plants. After about 3 weeks, the effect was scored visually in percent in comparison to untreated controls. For example, 100% activity=the plants have died, 50% herbicidal activity or damage=plants reduced to 50% or plant material reduced by 50%, 0% activity=like control plants. Here, in the biological tests, the compounds of the general formula (I) according to the invention were in each case employed in a formulation, with the numerations of Tables I.1 to I.77 also applying here. Here, the herbicidal action of the compounds of the general formula (I) according to the invention was examined for the following harmful plants: AMARE=Amaranthus retroflexus The respective herbicidal action was in each case determined at the same point in time after application of the formulation in question, i.e. damage of the harmful plant in question in %. Pre-emergence herbicidal action of the compounds of the general formula (I) according to the invention: […]

Ipomoea purpurea = assay: Pre-emergence herbicidal action, PHBPU
Source text: as §1, with “PHBPU=Ipomoea purpurea” for “AMARE=Amaranthus retroflexus”

Alopecurus myosuroides = assay: Pre-emergence herbicidal action, ALOMY
Source text: as §1, with “ALOMY=Alopecurus myosuroides” for “AMARE=Amaranthus retroflexus”

[1] = test system: Matricaria inodora (=Tripleurospermum maritimum subsp. inodorum); assay: Pre-emergence herbicidal action, MATIN
Source text: as §1, with “MATIN=Matricaria inodora (=Tripleurospermum maritimum subsp. inodorum)” for “AMARE=Amaranthus retroflexus”

Setaria viridis = assay: Pre-emergence herbicidal action, SETVI
Source text: as §1, with “SETVI=Setaria viridis” for “AMARE=Amaranthus retroflexus”

Row | SMILES | Pre-emergence herbicidal action AMARE, damage of the harmful plant (Amaranthus retroflexus) [%] | Pre-emergence herbicidal action PHBPU, damage of the harmful plant (Ipomoea purpurea) [%] | Pre-emergence herbicidal action ALOMY, damage of the harmful plant (Alopecurus myosuroides) [%] | Pre-emergence herbicidal action MATIN, damage of the harmful plant [1] [%] | Pre-emergence herbicidal action SETVI, damage of the harmful plant (Setaria viridis) [%]
1 | CC1=C(C)C(O)N(C2=NN(c3ccccn3)C(C)(C)C2)C1=O (stereo not drawn) [I.2-132] | 60 | 0 | 70 | 0 | 40
2 | CC1=C(C)C(O)N(C2=NN(c3ccccc3)C(C(F)(F)F)C2)C1=O (stereo not drawn) [I.2-1413] | 60 | 0 | 70 | 100 | 70
3 | CCC(=O)OC1C(C)=C(C)C(=O)N1C1=NN(c2ccccn2)C(C)(C)C1 (stereo not drawn) [I.23-132] | 70 | 30 | 60 | 40 | 0
4 | CCC(=O)OC1C(C)=C(C)C(=O)N1C1=NN(c2ccccc2)CC1 (stereo not drawn) [I.23-621] | 40 | 0 | 0 | 50 | 50
5 | CCC(=O)OC1C(C)=C(C)C(=O)N1C1=NN(c2ccccc2)C(C(F)(F)F)C1 (stereo not drawn) [I.23-1413] | 50 | 0 | 0 | 70 | 40
6 | CCC(=O)OC1C(C)=C(Cl)C(=O)N1C1=NN(C)C(c2ccccc2)C1 (stereo not drawn) [I.24-1126] | 0 | 100 | 10 | 90 | 0
